Experimental data reported in PubChem BioAssay (NCI).
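A five-concentration, 48-hour dose response in 96-well plates underlies each endpoint, interpolated linearly between surrounding concentrations. Here, GI50 denotes the concentration required for 50% inhibition of growth. TGI marks complete inhibition of growth.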

Assays:
Experiment in all cases: NCI tumour cell line growth inhibition, 48 h
[1] = test system: 786-0 renal
[2] = test system: A498 renal
[3] = test system: A549 NSCLC
[4] = test system: ACHN renal
[5] = test system: BT-549 breast
[6] = test system: CAKI-1 renal
[7] = test system: CCRF-CEM leukemia
[8] = test system: COLO 205 colon
[9] = test system: DU-145 prostate
[10] = test system: EKVX NSCLC
[11] = test system: HCC-2998 colon
[12] = test system: HCT-116 colon
[13] = test system: HCT-15 colon
[14] = test system: HL-60(TB) leukemia
[15] = test system: HOP-62 NSCLC
[16] = test system: HOP-92 NSCLC
[17] = test system: HS 578T breast
[18] = test system: HT29 colon
[19] = test system: IGROV1 ovarian
[20] = test system: K-562 leukemia
[21] = test system: KM12 colon
[22] = test system: LOX IMVI melanoma
[23] = test system: M14 melanoma
[24] = test system: MALME-3M melanoma
[25] = test system: MCF7 breast
[26] = test system: MDA-MB-231 breast
[27] = test system: MDA-MB-435
[28] = test system: MOLT-4 leukemia
[29] = test system: NCI-H226 lung
[30] = test system: NCI-H460 lung
[31] = test system: NCI-H522 lung
[32] = test system: NCI/ADR-RES ovarian
[33] = test system: OVCAR-3 ovarian
[34] = test system: OVCAR-4 ovarian
[35] = test system: OVCAR-5 ovarian
[36] = test system: OVCAR-8 ovarian
[37] = test system: PC-3 prostate
[38] = test system: RPMI-8226 leukemia
[39] = test system: RXF 393 renal
[40] = test system: SF-268 CNS
[41] = test system: SF-295 CNS
[42] = test system: SF-539 CNS
[43] = test system: SK-MEL-2 melanoma
[44] = test system: SK-MEL-28 melanoma
[45] = test system: SK-MEL-5 melanoma
[46] = test system: SK-OV-3 ovarian
[47] = test system: SN12C renal
[48] = test system: SNB-19 CNS
[49] = test system: SNB-75 CNS
[50] = test system: SR leukemia
[51] = test system: SW-620 colon
[52] = test system: T-47D breast
[53] = test system: TK-10 renal
[54] = test system: U251 CNS
[55] = test system: UACC-257 melanoma
[56] = test system: UACC-62 melanoma
[57] = test system: UO-31 renal

C[C@@H](Nc1c(C#N)cnc2ccc(-c3cnc(N)nc3)cc12)c1ccccc1 was tested, and the GI50 [1] was 1600 nM, the TGI [1] was 36400 nM and the GI50 [2] was 301 nM. The TGI [2] was 3480 nM, the GI50 [3] was 1550 nM and the TGI [3] was 13700 nM. The GI50 [4] was 942 nM, the TGI [4] was 40900 nM and the GI50 [5] was 1050 nM. For the same compound, the TGI [5] was 6340 nM, the GI50 [6] was 781 nM and the TGI [6] was 11600 nM. It also gave a GI50 [7] of 1890 nM, a TGI [7] of over 100000 nM and a GI50 [8] of 3060 nM. The TGI [8] was 13400 nM, the GI50 [9] was 1910 nM and the TGI [9] was over 100000 nM. It also gave a GI50 [10] of 552 nM, a TGI [10] of 5000 nM and a GI50 [11] of 2780 nM. The TGI [11] was over 100000 nM, the GI50 [12] was 2460 nM and the TGI [12] was 11100 nM. The GI50 [13] was 1740 nM, the TGI [13] was 22600 nM and the GI50 [14] was 2070 nM. For the same compound, the TGI [14] was over 100000 nM, the GI50 [15] was 1980 nM and the TGI [15] was 27800 nM. For the same compound, the GI50 [16] was 185 nM, the TGI [16] was 1110 nM and the GI50 [17] was 1190 nM. It also gave a TGI [17] of 6820 nM, a GI50 [18] of 2430 nM and a TGI [18] of over 100000 nM. For the same compound, the GI50 [19] was 454 nM, the TGI [19] was 3870 nM and the GI50 [20] was 2490 nM. It also gave a TGI [20] of over 100000 nM, a GI50 [21] of 2670 nM and a TGI [21] of over 100000 nM. For the same compound, the GI50 [22] was 1640 nM, the TGI [22] was 11000 nM and the GI50 [23] was 2800 nM. For the same compound, the TGI [23] was 16700 nM, the GI50 [24] was 1590 nM and the TGI [24] was 7830 nM. For the same compound, the GI50 [25] was 1150 nM, the TGI [25] was 17300 nM and the GI50 [26] was 1820 nM. For the same compound, the TGI [26] was 50400 nM, the GI50 [27] was 2610 nM and the TGI [27] was over 100000 nM. For the same compound, the GI50 [28] was 1580 nM, the TGI [28] was over 100000 nM and the GI50 [29] was 1810 nM. The TGI [29] was 12700 nM, the GI50 [30] was 1730 nM and the TGI [30] was 44600 nM. It also gave a GI50 [31] of 1730 nM, a TGI [31] of 10600 nM and a GI50 [32] of 2870 nM. For the same compound, the TGI [32] was 18100 nM, the GI50 [33] was 2740 nM and the TGI [33] was over 100000 nM. It also gave a GI50 [34] of 1220 nM, a TGI [34] of 7870 nM and a GI50 [35] of 1620 nM. It also gave a TGI [35] of 83800 nM, a GI50 [36] of 2500 nM and a TGI [36] of 24000 nM. The GI50 [37] was 1540 nM, the TGI [37] was 10100 nM and the GI50 [38] was 588 nM. The TGI [38] was 4920 nM, the GI50 [39] was 886 nM and the TGI [39] was 4590 nM. It also gave a GI50 [40] of 3220 nM, a TGI [40] of over 100000 nM and a GI50 [41] of 1380 nM. The TGI [41] was 7450 nM, the GI50 [42] was 2210 nM and the TGI [42] was 12800 nM. It also gave a GI50 [43] of 1760 nM, a TGI [43] of 5540 nM and a GI50 [44] of 2950 nM. For the same compound, the TGI [44] was 26900 nM, the GI50 [45] was 1840 nM and the TGI [45] was 3990 nM. The GI50 [46] was 2160 nM, the TGI [46] was 7380 nM and the GI50 [47] was 1140 nM. For the same compound, the TGI [47] was 24200 nM, the GI50 [48] was 2230 nM and the TGI [48] was 60600 nM. For the same compound, the GI50 [49] was 1580 nM, the TGI [49] was 37500 nM and the GI50 [50] was 2380 nM. For the same compound, the TGI [50] was over 100000 nM, the GI50 [51] was 3730 nM and the TGI [51] was over 100000 nM. It also gave a GI50 [52] of 907 nM, a TGI [52] of 7860 nM and a GI50 [53] of 289 nM. It also gave a TGI [53] of 3450 nM, a GI50 [54] of 2130 nM and a TGI [54] of 77500 nM. It also gave a GI50 [55] of 2790 nM, a TGI [55] of 17100 nM and a GI50 [56] of 2240 nM. It also gave a TGI [56] of 10000 nM, a GI50 [57] of 310 nM and a TGI [57] of 8900 nM.
